Reference: patent publication US10772866B2 (UNIVERSITY-INDUSTRY COOPERATION GROUP OF KYUNG HEE …, priority 2013, dated 2020)

Tested on: CA1 neuron region of hippocampal tissue
Assay: Crystal violet staining of CA1 neuron region of hippocampal tissue after transient global ischemia
Type: in vivo, CD1 mice
Settings: mice after transient global ischemia; fluoxetine, vitamin C alone or together at trace amount; vs normal and negative control groups
Excerpt: Eight-week old adult male CD1 mice with a weight of 33 g to 37 g were induced to be anesthetized by injecting with 2% isoflurane under an air condition, in which nitrous oxide and oxygen were in a 70:30 ratio, and the mice were induced to have transient global ischemia according to the previous disclosure while the mice were maintained in the anesthetized state with 1% isoflurane (Kim, D. H. et. al, 2009. Food Chem. Toxicol. 47, 1473-1479.). The thus-prepared mice with transient global ischemia put into cages (4 mice/cage) were given ad libitum access to water and foods, and bred in an environment of a constant temperature (23±1° C.) and continuous humidity (60±10%) under a 12 hour light/dark cycle.
Specifically, the brains obtained and stored by performing in the same manner as in <Example 6> were cut into 30 μm coronal plane sections, placed on gelatin-coated slides, stained with crystal violet, and dehydrated by adding 70%, 80%, 90%, and 100% alcohol in this order. Upon dehydration, xylene was added thereto, covered with coverslips, and the CA1 neuron region of hippocampal tissue was observed.

SMILES | recovery of hippocampal tissue injury (CA1 neuron region, preserved cells, FIGS. 7 and 8)
CNCCC(Oc1ccc(C(F)(F)F)cc1)c1ccccc1 (centres unmarked) [fluoxetine] | a recovery similar to that of the negative control group
O=C1O[C@H]([C@@H](O)CO)C(O)=C1O [vitamin C, ascorbic acid] | a recovery similar to that of the negative control group
